Source: patent publication US20250120967A1, “TYROSINE KINASES INHIBITORS AND USES THEREOF” (GREAT NOVEL THERAPEUTICS BIOTECH & MEDICALS CORPORATION, priority 2023, published 2025)

Tests used:
Assay in all cases: Tyrosine kinase inhibition assay
Type in all cases: biochemical
Conditions in all cases: single concentration 1.0 μM, read-out: percent inhibition
BLK = BLK (Homo sapiens, UniProt P51451)
Method: (§1) Tyrosine kinase inhibition assays were performed at ThermoFisher Life Technologies (Madison, WI, USA) using standard protocols (SelectScreen Biochemical Profiling Service, Thermo Fisher Scientific). ATP concentrations used were at the apparent Km. Test compounds were screened in 1% dimethylsulffoxide (DMSO) (final concentration) in the well. For 10-point titrations, 3-fold serial dilutions were conducted from the starting concentration of […]. All Peptide/Kinase Mixtures were diluted to a 2× working concentration in the appropriate Kinase Buffer. All ATP Solutions were diluted to a 4× working concentration in Kinase Buffer (50 mM HEPES pH 7.5, 0.01% BRIJ-35, 10 mM MgCl2, 1 mM EGTA). The apparent ATP Km was previously determined using a Z′-LYTE assay. The Development Reagent was diluted in Development Buffer.
(§2) The inhibition activities of compounds were determined in biochemical assays using single concentration (1.0 μM) measurements. The results were provided as percent inhibition values. A compound displaying a percent inhibition value of greater 80% was defined as a hit. 99 different tyrosine kinases were used.

FGFR1 = FGFR1 (Homo sapiens, UniProt P11362)
Method: as §1, §2

EPHA1 = molecular target: T1, EPHA1 (Homo sapiens, UniProt P21709)
T1 sequence (P21709 26-976): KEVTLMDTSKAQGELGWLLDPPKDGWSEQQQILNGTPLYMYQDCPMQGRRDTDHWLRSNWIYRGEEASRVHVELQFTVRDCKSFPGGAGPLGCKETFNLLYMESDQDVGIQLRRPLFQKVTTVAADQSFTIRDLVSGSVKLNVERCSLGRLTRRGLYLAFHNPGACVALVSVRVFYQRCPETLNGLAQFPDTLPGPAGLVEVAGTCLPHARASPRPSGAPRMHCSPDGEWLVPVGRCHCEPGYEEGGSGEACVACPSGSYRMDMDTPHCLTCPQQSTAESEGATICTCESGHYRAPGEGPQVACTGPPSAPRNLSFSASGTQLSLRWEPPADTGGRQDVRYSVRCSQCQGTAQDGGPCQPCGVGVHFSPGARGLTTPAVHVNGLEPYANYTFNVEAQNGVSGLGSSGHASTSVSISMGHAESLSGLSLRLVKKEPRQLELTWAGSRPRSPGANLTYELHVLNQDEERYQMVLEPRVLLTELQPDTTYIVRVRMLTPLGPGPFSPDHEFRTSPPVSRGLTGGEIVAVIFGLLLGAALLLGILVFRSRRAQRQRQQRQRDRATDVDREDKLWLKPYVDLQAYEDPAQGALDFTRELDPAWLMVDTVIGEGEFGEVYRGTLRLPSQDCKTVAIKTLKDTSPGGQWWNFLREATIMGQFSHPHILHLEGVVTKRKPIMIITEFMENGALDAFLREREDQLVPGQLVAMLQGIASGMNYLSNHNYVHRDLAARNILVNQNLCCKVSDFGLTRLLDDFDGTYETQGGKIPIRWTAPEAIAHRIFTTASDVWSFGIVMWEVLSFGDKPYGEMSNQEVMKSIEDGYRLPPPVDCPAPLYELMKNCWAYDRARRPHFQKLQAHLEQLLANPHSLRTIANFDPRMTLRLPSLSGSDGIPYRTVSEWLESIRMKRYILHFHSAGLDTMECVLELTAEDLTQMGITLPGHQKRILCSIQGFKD
Method: as §1, §2

EPHB1 = molecular target: T2, EPHB1 (Homo sapiens, UniProt P54762)
T2 sequence (P54762 18-984): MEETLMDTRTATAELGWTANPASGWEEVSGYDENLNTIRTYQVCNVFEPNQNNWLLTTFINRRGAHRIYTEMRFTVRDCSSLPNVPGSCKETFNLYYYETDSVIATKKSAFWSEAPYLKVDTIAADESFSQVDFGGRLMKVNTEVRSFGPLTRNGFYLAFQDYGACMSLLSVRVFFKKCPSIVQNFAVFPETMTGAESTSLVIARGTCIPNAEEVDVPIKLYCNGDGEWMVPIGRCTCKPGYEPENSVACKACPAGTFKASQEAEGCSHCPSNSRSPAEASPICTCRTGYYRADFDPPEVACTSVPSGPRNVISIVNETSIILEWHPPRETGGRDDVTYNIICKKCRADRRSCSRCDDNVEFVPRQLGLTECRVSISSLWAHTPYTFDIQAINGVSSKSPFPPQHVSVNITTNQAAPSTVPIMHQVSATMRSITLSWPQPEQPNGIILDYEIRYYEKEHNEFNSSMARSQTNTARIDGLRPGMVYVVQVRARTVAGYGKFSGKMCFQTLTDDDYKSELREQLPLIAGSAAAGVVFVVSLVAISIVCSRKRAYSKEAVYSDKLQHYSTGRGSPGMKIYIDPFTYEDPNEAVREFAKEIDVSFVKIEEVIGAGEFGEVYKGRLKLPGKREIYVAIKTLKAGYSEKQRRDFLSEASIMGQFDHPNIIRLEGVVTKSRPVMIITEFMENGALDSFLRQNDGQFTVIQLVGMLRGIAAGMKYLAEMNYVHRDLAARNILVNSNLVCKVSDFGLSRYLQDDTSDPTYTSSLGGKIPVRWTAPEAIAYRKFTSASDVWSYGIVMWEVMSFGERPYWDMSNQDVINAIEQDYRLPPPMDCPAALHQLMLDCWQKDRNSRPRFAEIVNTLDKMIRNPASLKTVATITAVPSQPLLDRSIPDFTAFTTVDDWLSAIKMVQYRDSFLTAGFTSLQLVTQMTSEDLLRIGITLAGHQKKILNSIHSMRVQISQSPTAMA
Method: as §1, §2

ABL2 (Arg) = ABL2 (Arg) (Homo sapiens, UniProt P42684)
Method: as §1, §2

EPHA5 = EPHA5 (Homo sapiens, UniProt P54756)
Method: as §1, §2

NTRK1 (TRKA) = NTRK1 (TRKA) (Homo sapiens, UniProt P04629)
Method: as §1, §2

BRAF = BRAF (Homo sapiens, UniProt P15056)
Method: as §1, §2

Sequence of FGFR1 (P11362 22-822): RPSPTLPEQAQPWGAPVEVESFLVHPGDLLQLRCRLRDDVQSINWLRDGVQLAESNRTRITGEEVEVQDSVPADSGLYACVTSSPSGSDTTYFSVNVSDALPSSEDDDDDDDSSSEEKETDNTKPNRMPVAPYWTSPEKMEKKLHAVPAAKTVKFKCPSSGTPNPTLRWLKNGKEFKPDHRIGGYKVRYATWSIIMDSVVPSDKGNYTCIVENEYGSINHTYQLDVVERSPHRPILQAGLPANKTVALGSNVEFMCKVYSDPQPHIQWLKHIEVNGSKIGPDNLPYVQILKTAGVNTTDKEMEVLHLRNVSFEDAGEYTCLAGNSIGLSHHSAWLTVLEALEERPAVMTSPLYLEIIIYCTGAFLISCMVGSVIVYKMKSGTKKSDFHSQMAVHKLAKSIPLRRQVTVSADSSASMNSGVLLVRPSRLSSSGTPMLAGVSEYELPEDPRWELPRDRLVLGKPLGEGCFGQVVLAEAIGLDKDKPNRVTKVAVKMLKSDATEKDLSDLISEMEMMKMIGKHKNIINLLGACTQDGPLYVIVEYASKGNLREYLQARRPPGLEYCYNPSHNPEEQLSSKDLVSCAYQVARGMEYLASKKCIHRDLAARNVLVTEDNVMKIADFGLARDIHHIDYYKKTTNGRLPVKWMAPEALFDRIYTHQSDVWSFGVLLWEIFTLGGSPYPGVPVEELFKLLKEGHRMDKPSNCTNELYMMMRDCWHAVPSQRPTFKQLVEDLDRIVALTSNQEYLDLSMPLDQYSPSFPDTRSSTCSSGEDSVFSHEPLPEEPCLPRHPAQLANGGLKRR
Sequence of BLK (P51451 whole entry): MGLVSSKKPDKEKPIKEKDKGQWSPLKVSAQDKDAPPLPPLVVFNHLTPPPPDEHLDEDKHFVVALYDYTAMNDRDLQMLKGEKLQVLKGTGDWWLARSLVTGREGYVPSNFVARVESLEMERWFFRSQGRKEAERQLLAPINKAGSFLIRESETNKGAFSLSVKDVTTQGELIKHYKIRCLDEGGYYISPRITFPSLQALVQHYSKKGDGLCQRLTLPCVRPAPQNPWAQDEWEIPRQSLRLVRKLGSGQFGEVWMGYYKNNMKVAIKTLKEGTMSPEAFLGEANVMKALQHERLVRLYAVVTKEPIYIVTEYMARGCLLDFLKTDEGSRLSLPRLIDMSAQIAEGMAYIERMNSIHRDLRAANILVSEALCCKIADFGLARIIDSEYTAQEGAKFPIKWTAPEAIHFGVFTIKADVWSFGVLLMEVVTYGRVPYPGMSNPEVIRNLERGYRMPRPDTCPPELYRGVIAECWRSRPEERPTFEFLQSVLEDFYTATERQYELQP
Sequence of NTRK1 (TRKA) (P04629 33-796): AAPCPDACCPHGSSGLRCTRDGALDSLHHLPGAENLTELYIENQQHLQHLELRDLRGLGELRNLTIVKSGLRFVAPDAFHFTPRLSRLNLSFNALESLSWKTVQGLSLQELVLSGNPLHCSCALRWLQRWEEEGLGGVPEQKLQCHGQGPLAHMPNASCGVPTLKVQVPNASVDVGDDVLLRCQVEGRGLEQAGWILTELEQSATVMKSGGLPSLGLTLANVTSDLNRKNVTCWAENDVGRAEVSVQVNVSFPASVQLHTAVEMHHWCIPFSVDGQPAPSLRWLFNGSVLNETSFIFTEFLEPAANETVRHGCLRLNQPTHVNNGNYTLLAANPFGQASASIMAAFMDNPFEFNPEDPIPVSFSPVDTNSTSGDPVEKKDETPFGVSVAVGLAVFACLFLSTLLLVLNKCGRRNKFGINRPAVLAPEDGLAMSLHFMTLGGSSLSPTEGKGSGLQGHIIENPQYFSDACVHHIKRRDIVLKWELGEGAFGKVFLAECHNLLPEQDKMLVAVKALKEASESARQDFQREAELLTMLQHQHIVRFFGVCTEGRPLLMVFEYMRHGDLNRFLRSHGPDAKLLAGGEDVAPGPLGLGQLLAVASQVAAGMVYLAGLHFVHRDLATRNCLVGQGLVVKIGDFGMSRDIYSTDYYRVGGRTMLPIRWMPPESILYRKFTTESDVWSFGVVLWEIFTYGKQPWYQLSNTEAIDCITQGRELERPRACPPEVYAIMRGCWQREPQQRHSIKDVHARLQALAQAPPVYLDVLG
Sequence of BRAF (P15056 whole entry): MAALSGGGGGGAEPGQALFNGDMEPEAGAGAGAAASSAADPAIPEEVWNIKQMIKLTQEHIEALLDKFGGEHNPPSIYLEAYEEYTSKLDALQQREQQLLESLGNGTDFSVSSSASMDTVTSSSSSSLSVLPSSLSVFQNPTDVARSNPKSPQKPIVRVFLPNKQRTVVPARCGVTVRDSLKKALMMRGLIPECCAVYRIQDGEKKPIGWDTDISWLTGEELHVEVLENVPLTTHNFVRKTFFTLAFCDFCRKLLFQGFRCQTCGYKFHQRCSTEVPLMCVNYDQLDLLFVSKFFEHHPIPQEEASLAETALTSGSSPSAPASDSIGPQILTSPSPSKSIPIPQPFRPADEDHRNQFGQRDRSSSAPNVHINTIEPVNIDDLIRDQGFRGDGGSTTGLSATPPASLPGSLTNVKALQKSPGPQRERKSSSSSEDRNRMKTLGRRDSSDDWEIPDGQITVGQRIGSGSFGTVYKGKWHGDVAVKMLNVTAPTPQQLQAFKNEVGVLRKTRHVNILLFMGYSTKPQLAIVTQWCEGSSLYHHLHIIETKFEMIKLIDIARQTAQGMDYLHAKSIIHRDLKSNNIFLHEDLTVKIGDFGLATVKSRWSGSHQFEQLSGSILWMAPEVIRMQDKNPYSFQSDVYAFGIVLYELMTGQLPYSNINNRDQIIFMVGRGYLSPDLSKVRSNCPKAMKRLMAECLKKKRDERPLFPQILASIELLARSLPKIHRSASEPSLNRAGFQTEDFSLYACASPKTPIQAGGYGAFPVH
Sequence of EPHA5 (P54756 25-1037): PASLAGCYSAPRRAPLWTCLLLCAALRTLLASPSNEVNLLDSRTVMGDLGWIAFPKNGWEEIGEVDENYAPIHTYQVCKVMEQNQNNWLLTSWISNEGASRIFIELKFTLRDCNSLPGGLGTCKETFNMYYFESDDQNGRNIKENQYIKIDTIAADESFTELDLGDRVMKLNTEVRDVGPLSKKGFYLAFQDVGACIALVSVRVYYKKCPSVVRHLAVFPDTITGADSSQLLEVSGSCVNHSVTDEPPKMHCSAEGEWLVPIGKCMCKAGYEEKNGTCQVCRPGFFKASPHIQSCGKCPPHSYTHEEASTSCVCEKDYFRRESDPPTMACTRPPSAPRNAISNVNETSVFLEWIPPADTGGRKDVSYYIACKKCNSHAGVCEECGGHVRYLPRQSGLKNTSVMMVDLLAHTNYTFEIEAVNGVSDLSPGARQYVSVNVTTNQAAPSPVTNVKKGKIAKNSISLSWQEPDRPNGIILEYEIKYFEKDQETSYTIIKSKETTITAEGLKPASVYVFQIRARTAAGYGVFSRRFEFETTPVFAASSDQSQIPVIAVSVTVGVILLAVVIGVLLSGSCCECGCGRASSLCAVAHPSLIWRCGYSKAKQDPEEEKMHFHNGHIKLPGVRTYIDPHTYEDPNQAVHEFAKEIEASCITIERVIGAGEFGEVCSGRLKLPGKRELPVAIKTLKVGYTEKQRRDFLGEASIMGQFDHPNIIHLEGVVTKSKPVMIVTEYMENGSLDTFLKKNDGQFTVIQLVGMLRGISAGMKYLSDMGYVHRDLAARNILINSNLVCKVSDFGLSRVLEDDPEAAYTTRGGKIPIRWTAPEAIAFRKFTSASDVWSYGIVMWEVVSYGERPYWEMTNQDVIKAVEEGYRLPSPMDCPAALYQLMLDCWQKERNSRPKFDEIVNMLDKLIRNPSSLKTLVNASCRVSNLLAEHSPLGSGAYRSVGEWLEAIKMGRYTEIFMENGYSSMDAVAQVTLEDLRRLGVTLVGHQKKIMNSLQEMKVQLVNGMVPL
Sequence of ABL2 (Arg) (P42684 whole entry): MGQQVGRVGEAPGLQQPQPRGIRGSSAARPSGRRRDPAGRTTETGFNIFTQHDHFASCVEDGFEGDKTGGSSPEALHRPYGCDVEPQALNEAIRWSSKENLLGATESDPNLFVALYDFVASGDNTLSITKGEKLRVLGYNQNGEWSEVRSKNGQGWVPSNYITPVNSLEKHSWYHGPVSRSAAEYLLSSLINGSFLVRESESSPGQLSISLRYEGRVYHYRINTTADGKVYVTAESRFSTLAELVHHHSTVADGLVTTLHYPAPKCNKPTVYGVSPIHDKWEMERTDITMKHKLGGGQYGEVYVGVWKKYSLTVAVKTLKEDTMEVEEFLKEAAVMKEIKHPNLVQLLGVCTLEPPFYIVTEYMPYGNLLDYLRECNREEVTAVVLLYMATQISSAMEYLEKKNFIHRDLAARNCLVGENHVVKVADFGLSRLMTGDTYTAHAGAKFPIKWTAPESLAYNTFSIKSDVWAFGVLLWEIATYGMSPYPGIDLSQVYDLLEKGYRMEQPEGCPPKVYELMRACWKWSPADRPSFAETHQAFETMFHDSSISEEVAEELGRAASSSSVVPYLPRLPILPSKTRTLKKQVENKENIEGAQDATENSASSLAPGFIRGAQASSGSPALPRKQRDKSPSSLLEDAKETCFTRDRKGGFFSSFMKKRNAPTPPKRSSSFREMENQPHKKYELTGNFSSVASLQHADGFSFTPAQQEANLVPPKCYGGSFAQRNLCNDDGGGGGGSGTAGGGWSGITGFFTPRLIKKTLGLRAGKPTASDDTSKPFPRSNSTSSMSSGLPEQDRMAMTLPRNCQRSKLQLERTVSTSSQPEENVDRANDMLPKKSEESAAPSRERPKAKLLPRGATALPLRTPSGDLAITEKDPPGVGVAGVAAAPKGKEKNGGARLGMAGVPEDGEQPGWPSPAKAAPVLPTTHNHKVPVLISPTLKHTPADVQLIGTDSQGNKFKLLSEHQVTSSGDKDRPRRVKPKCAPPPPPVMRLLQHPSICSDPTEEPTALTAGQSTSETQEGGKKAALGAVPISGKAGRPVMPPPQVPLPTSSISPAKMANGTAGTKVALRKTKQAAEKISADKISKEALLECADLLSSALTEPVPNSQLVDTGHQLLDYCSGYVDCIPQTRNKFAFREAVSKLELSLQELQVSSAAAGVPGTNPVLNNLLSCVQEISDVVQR

Q: `COc1cc2nccc(Oc3ccc(NC(=O)C4(C(=O)Nc5ccc(F)cc5)CC4)cc3)c2cc1OC` [Cabozantinib, reference compound] was tested. Which inhibition at 1 µM (BLK) did it give?
A: 83%

Q: What about the inhibition at 1 µM (FGFR1) of the same compound?
A: 12%

Q: What about the inhibition at 1 µM (EPHA1) of the same compound?
A: 74%

Q: And the inhibition at 1 µM (EPHB1)?
A: 99%

Q: What about the inhibition at 1 µM (ABL2 (Arg)) of the same compound?
A: 35%

Q: And the inhibition at 1 µM (EPHA5)?
A: 100%

Q: And the inhibition at 1 µM (NTRK1 (TRKA))?
A: 98%

Q: And the inhibition at 1 µM (BRAF)?
A: 13%

Q: What does the source list for `COc1cc2nccc(Oc3ccc(NC(=O)C4(NC(=O)c5ccc(F)cc5)CC4)cc3F)c2cc1OC` [Cbo-02, N-(1-((4-((6,7-diMethoxyquinolin-4-yl)oxy)-3-fluorophenyl)carbamoyl)cyclopropyl)-4-fluorobenzamide]?
A: inhibition at 1 µM (BLK): 61%; inhibition at 1 µM (FGFR1): 3%; inhibition at 1 µM (EPHA1): 29%; inhibition at 1 µM (EPHB1): 37%; inhibition at 1 µM (ABL2 (Arg)): 12%; inhibition at 1 µM (EPHA5): 41%; inhibition at 1 µM (NTRK1 (TRKA)): 58%; inhibition at 1 µM (BRAF): 4%

Q: What does the source list for `COc1cc2nccc(Oc3ccc(NC(=O)C4(NC(=O)c5ccc(F)cc5)CC4)cc3F)c2cc1Oc1ccc(N)cc1F` [Cbo-10]?
A: inhibition at 1 µM (BLK): 80%; inhibition at 1 µM (FGFR1): 1%; inhibition at 1 µM (EPHA1): 84%; inhibition at 1 µM (EPHB1): 74%; inhibition at 1 µM (ABL2 (Arg)): 17%; inhibition at 1 µM (EPHA5): 87%; inhibition at 1 µM (NTRK1 (TRKA)): 80%; inhibition at 1 µM (BRAF): 4%

Q: Which results are given for `COc1cc2nccc(Oc3ccc(NC(=O)C4(NC(=O)c5ccc(F)cc5)CC4)cc3F)c2cc1Oc1c(F)cc(N)cc1F` [Cbo-14]?
A: inhibition at 1 µM (BLK): 80%; inhibition at 1 µM (FGFR1): 5%; inhibition at 1 µM (EPHA1): 80%; inhibition at 1 µM (EPHB1): 75%; inhibition at 1 µM (ABL2 (Arg)): 18%; inhibition at 1 µM (EPHA5): 92%; inhibition at 1 µM (NTRK1 (TRKA)): 71%; inhibition at 1 µM (BRAF): 1%

Q: Which results are given for `COc1cc2nccc(Oc3ccc(NC(=O)C4(C(=O)Nc5ccc(F)cc5)CC4)cc3F)c2cc1Oc1ccc(N)cc1F` [Cbo-23]?
A: inhibition at 1 µM (BLK): 93%; inhibition at 1 µM (FGFR1): 27%; inhibition at 1 µM (EPHA1): 96%; inhibition at 1 µM (EPHB1): 99%; inhibition at 1 µM (ABL2 (Arg)): 54%; inhibition at 1 µM (EPHA5): 99%; inhibition at 1 µM (NTRK1 (TRKA)): 97%; inhibition at 1 µM (BRAF): 3%
